We go through seven compounds from ChEMBL document CHEMBL1201862, “PubChem BioAssay data set” (2004).

Test systems include RXF 631; M19-MEL; SNB-78; XF498; DMS-273; KM-20L2; DMS-114; LXFL 529; DLD-1.
Assay in all cases: growth of human tumour cells (NCI), 48 h

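A five-concentration, 48-hour dose response in 96-well plates underlies each endpoint, interpolated linearly between surrounding concentrations. GI50 marks 50% less growth.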 The source made the active and inactive calls. Cut-off read from the data, not from the text of the source: active = GI50 up to about 1.1 µM and inactive = higher.

In the case of `CCOC(=O)C1Cc2c(ccc(OC)c2OC)C(=O)C1N` (stereo not drawn), the GI50 with RXF 631, in the assay with M19-MEL, in the assay with SNB-78, in the assay with XF498, with DMS-273 and with KM-20L2 was > 100 µM (inactive) in each case. Besides, the results for the GI50 in the assay with DMS-114, in the assay with LXFL 529 and with DLD-1 were > 100 µM (inactive), 94.8 µM (inactive) and > 100 µM (inactive), respectively.
As for `CCc1ccccc1NC(=O)C(=O)C1C(=O)N(c2ccccc2)N=C1N` (stereo not drawn), the GI50 in the assay on RXF 631, in the assay on M19-MEL, in the assay on SNB-78, in the assay on XF498, in the assay with DMS-273 and with KM-20L2 was > 100 µM (inactive) in each case. Further, the GI50 in the assay with DMS-114, with LXFL 529 and with DLD-1 was > 100 µM (inactive) each time.
In the case of `CC(=O)n1c2c(c(=O)n1-c1ccccc1)[S+]([O-])CCC2` (stereo not drawn), the GI50 is 97.1 µM (inactive) with RXF 631; 29.6 µM (inactive) in the assay with M19-MEL; 85.9 µM (inactive) with SNB-78; > 76.7 µM (inactive) with XF498; 23.2 µM (inactive) in the assay on DMS-273; > 71.6 µM (inactive) in the assay on KM-20L2. Moreover, the GI50 in the assay with DMS-114 is 35.9 µM (inactive); in the assay on LXFL 529, 28.7 µM (inactive); in the assay with DLD-1, 48 µM (inactive).
`Nc1ncnc2c(C3OC(CO)C(O)C3O)c[nH]c12` (stereo not drawn): the GI50 was 0.00776 µM (active) in the assay on RXF 631; 0.0139 µM (active) in the assay on M19-MEL; 0.01 µM (active) with SNB-78; 0.00881 µM (active) with XF498; 0.01 µM (active) in the assay on DMS-273; 0.00276 µM (active) in the assay with KM-20L2. In addition, the GI50 in the assay with DMS-114 was 0.00421 µM (active); in the assay on LXFL 529 it was 0.00482 µM (active); in the assay with DLD-1, 0.000728 µM (active).
As for `C=C1C(=O)C23[C@H](O)C1CC[C@H]2[C@]12COC3(O)[C@@H](O)[C@@H]1C(C)(C)CC[C@@H]2O`, the GI50 is 10.1 µM (inactive) with RXF 631; 12.9 µM (inactive) with M19-MEL; 3.44 µM (inactive) in the assay with SNB-78; 3.46 µM (inactive) with XF498; 13.6 µM (inactive) in the assay on DMS-273; 13.7 µM (inactive) with KM-20L2. Besides, the GI50 with DMS-114 is 7.38 µM (inactive); in the assay with LXFL 529, 1.27 µM (inactive); with DLD-1, 11.3 µM (inactive).
Turning to `COc1cc(-c2cc(CCC(=O)Nc3ccccc3[N+](=O)[O-])n(-c3ccc([N+](=O)[O-])cc3[N+](=O)[O-])n2)ccc1O`, the GI50 is > 10 µM (inactive) in the assay with RXF 631; > 10 µM (inactive) in the assay on M19-MEL; > 10 µM (inactive) with SNB-78; > 100 µM (inactive) in the assay with XF498; > 10 µM (inactive) in the assay on DMS-273; > 10 µM (inactive) in the assay with KM-20L2. Further, the GI50 in the assay with DMS-114 is > 10 µM (inactive); in the assay with LXFL 529, 44.7 µM (inactive); in the assay on DLD-1, > 10 µM (inactive).
Regarding `COc1cccc(N2C(=O)C3C4C=C5c6ccccc6N(c6ccccc6)C5(C3C2=O)[C@H]2C(=O)N(c3cccc(OC)c3)C(=O)[C@@H]42)c1` (stereo partly drawn), the GI50 with RXF 631, in the assay with M19-MEL, with SNB-78, with XF498, in the assay on DMS-273 and in the assay on KM-20L2 was > 100 µM (inactive) in each case. The GI50 in the assay on DMS-114, in the assay with LXFL 529 and with DLD-1 was > 100 µM (inactive) in each case.
